Data on four compounds can be found in PMC11144398, “Crizotinib inhibits the metabolism of tramadol by non-competitive suppressing the activities of CYP2D1 and CYP3A2” (PeerJ, 2024).

Data set [1] can be described thus: Pharmacokinetics of tramadol and O-desmethyl tramadol in SD rats with or without crizotinib. Particulars: male, Sprague-Dawley, rat, serum, po, 20 mg/kg; for CL/F: CLz/F; for Vd/F: Vz/F; for half-life: t1/2z. From the text: Ultra-performance liquid chromatography-tandem mass spectrometry (UPLC-MS/MS) was utilized to measure the concentration of both tramadol and O-desmethyl tramadol. Separation was achieved using a Waters Acquity UPLC BEH C18 column, with dimensions of 2.1 mm × 50 mm and 1.7-µm particle size (Waters Corp., Milford, MA, USA), and quantitation was completed using a Waters XEVO TQD triple quadruple mass spectrometer. The mobile phase was composed of 0.1% formic acid (A) and ACN (B), and the gradient elution was carried out with a flow rate of 0.4 mL/min, following the procedure: 90–10% A (0–1.4 min), 10–90% A (1.4–1.5 min), and 90% A (1.5–2.0 min). Positive mode was used to detect the analytes with the following transitions: m/z 264.2 →58.0, m/z 250.2 →58.2, and m/z 285.0 →154.0 for tramadol, O-desmethyl tramadol, and diazepam (used as an internal standard, IS), respectively. The collision energy was 20 V for tramadol and O-desmethyl tramadol, and 25 V for diazepam. The standard for tramadol and O-desmethyl tramadol were dissolved in a small amount of DMSO (the concentration was 1 mg/mL) then diluted with acetonitrile (the final concentration was 1 ng/mL–1,000 ng/mL). Diazepam was diluted with methanol gradually to 500 ng/mL).
SD male rats (280 ± 15 g) were purchased from the Shanghai Animal Experimental Center. Before the experiment, the rats were kept in the animal room for two weeks with adequate water and food in order to adapt to the new environment. The room temperature was kept at 20–25 °C and the humidity was kept at 50%–65%. The change period of light and dark conditions was 12 h, which simulates the change of day and night. All animal experiments were approved by the Ethics Committee of Wenzhou Medical University (Approval number: xmsq2022-0621).
Generally speaking, only when at least five or more animals are involved in the experiment can the results be convincing. Thus, twenty SD rats were randomly divided into four groups with five animals per group: group A received a single dose of 20 mg/kg of tramadol; group B received a single dose of 45 mg/kg of crizotinib and 20 mg/kg of tramadol; group C received multiple doses of 0.5% carboxymethylcellulose sodium salt (CMC-Na) for 7 days and a single dose of 20 mg/kg of tramadol; and group D received multiple doses of 45 mg/kg of crizotinib for 7 days and a single dose of 20 mg/kg of tramadol. Prior to the experiment, all rats were fasted for 12 h but allowed free access to water. Once the experiment began, 0.5% CMC-Na and crizotinib were administered to groups C and D for 7 days, respectively, then to groups A and B on the last day of the experiment. After 30 min, all rats were orally administered 20 mg/kg of tramadol. Blood samples were collected from the tail vein at 5 min, 15 min, 30 min, 1 h, 2 h, 3 h, 4 h, 6 h, 8 h, 10 h, 12 h, and 24 h following tramadol administration. […] The samples were centrifuged at 2400 × g for 10 min to obtain serum. Each 50 µL serum was mixed with 150 µL ACN and 20 µL IS (500 ng/mL). After vortexing for 2 min and centrifugation at 16200 × g for 10 min at 4 °C, the supernatant was obtained, then we used UPLC-MS/MS analysis to detect the concentration of tramadol and O-desmethyl tramadol. After the experiment, all the animals were euthanized by 5% isoflurane inhalation anesthesia.
The Michaelis–Menten, IC50, and Lineweaver-Burk plots were generated using GraphPad Prism 6.0 software (GraphPad Software, Boston, MA, USA) with corresponding values for Km, IC50, and Ki (inhibition constant).

The test system of data set [2] is opioid receptors. Set-up: method as in earlier work. The note with it: ref Allegaert et al., 2015, De La Gastine et al., 2022, Gillen et al., 2000, Gong et al., 2014; cited from earlier work.
Data set [3] deals with tramadol metabolism (O-desmethyl tramadol production) in rat liver microsomes. In words: Liver microsomal incubation assay: inhibition of tramadol metabolism (O-desmethyl tramadol production) in RLM. The note with it: rat, pH 7.4, inhibitory rate on tramadol metabolism (production of O-desmethyl tramadol). Format: in vitro ADME. The method, then:
All the substance meet the requirements for analysis.
To obtain the Michaelis kinetic parameters of tramadol in RLM and HLM, a 200 µL incubation system was established containing 2 µL RLM or HLM (0.2 mg/mL), 186 µL 1xPBS buffer (pH = 7.4), 2 µL tramadol (10–500 µM), and 10 µL NADPH (1 mM). The mixture was pre-incubated for 5 min without NADPH in a water bath shaking at 37 °C. Then, NADPH was added to initiate the reaction, and the mixture was incubated for another 30 min. The reaction was terminated by adding 400 µL of cold ACN and 20 µL of IS (500 ng/mL).
For drug-interaction screening, 100 µM of each drug (1.6 µL) was added to the system, and added PBS to the final volume of 200 uL. Tramadol concentration was set at 60 µM according to the Km.
To determine the half-maximal inhibitory concentration (IC50), the concentration of crizotinib was set at 0.01, 0.1, 1, 10, 25, 50, and 100 µM, while the concentration of tramadol was constant at 60 µM in RLM or 100 µM in HLM (according to Km).
All data were presented as mean ± SD (standard deviation).
For orientation: Liver microsomes are vesicles of endoplasmic reticulum, rich in cytochrome P450 enzymes.

[4] abbreviates: Group A: single oral 20 mg/kg tramadol alone.
The mark [5] stands for this setting: Group B: 20 mg/kg tramadol with crizotinib 45 mg/kg single dose.
Where [6] appears, read: Group C: 0.5% CMC-Na for 7 days, then single 20 mg/kg tramadol.
The mark [7] stands for this setting: Group D: crizotinib 45 mg/kg for 7 days, then single 20 mg/kg tramadol.

The term AUC(0-t) denotes exposure summed from dosing to a finite time, without extrapolation to infinity. As usually defined, the AUC(0-inf) is the area under the concentration-time curve extrapolated to infinity. Lower therefore signals less exposure. What is called CL/F is the apparent clearance, not corrected for the fraction that reaches the circulation. In general, Cmax refers to the maximum level reached in the sampled fluid or tissue. By Tmax is commonly meant the time from dosing to the highest level. A word on the Vd/F: it is the volume of distribution divided by bioavailability. For orientation: half-life means how long it takes for the measured level to halve. Low readings indicate fast loss, high ones slow loss. A word on the inhibition: it is the change of the read-out against control, counted positive when it falls. A high value points to a strong effect.

In data set [1] (setting [4]), `CN(C)C[C@H]1CCCC[C@]1(O)c1cccc(O)c1` [O-desmethyl tramadol] showed an AUC(0-t) of 934 ± 101 ng·h/mL, an AUC(0-inf) of 937 ± 101 ng·h/mL, a CL/F of 360 mL/min/kg and a Cmax of 229 ± 56.1 ng/mL. For the same compound, in data set [1] (setting [4]), the time to peak (Tmax) is 0.8 ± 0.27 h, the Vd/F was determined as 91.3 ± 12 L/kg and the half-life was 2.93 ± 0.09 h. In data set [1] (setting [5]), this compound had an AUC(0-t) of 928 ± 145 ng·h/mL, an AUC(0-inf) of 981 ± 125 ng·h/mL, a CL/F of 344 mL/min/kg and a Cmax of 172 ± 72.1 ng/mL. Further, in data set [1] (setting [5]), the Tmax is 0.7 ± 0.27 h, the Vd/F was 170 ± 112 L/kg and the half-life is 5.68 ± 3.69 h. Also, in data set [1] (setting [6]), the AUC(0-t) was 1170 ng·h/mL, the total exposure AUC(0-inf) was determined as 1180 ng·h/mL, the apparent clearance CL/F is 288 mL/min/kg and the concentration peaked (Cmax) at 292 ± 55.1 ng/mL. In data set [1] (setting [6]), the time to peak (Tmax) amounted to 1.2 ± 0.45 h, the Vd/F was found to be 72.5 ± 25.4 L/kg and the half-life was 2.86 ± 0.71 h. For the same compound, in data set [1] (setting [7]), the exposure AUC(0-t) amounted to 1230 ng·h/mL, the AUC(0-inf) is 1250 ng·h/mL, the CL/F was 268 mL/min/kg and the highest level (Cmax) was 182 ± 65.8 ng/mL. For the same compound, in data set [1] (setting [7]), the Tmax stood at 0.9 ± 0.65 h, the Vd/F turned out to be 94.7 ± 26.4 L/kg and the half-life is 4.06 ± 0.91 h. For the same compound, the “affinity relative to tramadol” value in data set [2] is given as “more than 700 times”.

`COc1cccc(C2(O)CCCCC2CN(C)C)c1` (centres unmarked) [Tramadol, tramadol]: in data set [1] (setting [4]), the AUC(0-t) came to 770 ± 169 ng·h/mL, the total exposure AUC(0-inf) amounted to 786 ± 165 ng·h/mL, the apparent clearance (CL/F) was 440 mL/min/kg and the highest concentration (Cmax) stood at 202 ± 82.7 ng/mL. Besides, in data set [1] (setting [4]), the Tmax came out at 0.5 h, the Vd/F stood at 168 ± 88.2 L/kg and the half-life was 4.22 ± 1.68 h. For the same compound, in data set [1] (setting [5]), the AUC(0-t) was determined as 1120 ng·h/mL, the AUC(0-inf) came out at 1220 ng·h/mL, the CL/F was 298 mL/min/kg and the Cmax came to 245 ± 38.3 ng/mL. In data set [1] (setting [5]), the Tmax is 0.6 ± 0.22 h, the Vd/F came out at 154 ± 96.5 L/kg and the half-life is 6.91 ± 5.73 h. In data set [1] (setting [6]), this compound gave an AUC(0-t) of 777 ± 233 ng·h/mL, an AUC(0-inf) of 790 ± 226 ng·h/mL, a CL/F of 459 mL/min/kg and a Cmax of 246 ± 57.6 ng/mL. In data set [1] (setting [6]), the Tmax is 1.6 ± 0.55 h, the Vd/F turned out to be 307 ± 309 L/kg and the half-life was 6.69 ± 5.14 h. Moreover, in data set [1] (setting [7]), the AUC(0-t) is 1650 ng·h/mL, the AUC(0-inf) stood at 1650 ng·h/mL, the CL/F is 214 mL/min/kg and the Cmax was found to be 294 ± 85.2 ng/mL. Moreover, in data set [1] (setting [7]), the Tmax turned out to be 0.9 ± 0.65 h, the Vd/F stood at 51.4 ± 19.1 L/kg and the half-life was 2.74 ± 0.56 h.

The compound `CNC(=O)c1cc(Oc2ccc(NC(=O)Nc3ccc(Cl)c(C(F)(F)F)c3)c(F)c2)ccn1` [regorafenib] had an inhibition at 30 min, 100 µM in data set [3] of 83.7%.

Take `CNC(=O)c1cc(Oc2ccc(NC(=O)Nc3ccc(Cl)c(C(F)(F)F)c3)cc2)ccn1` [sorafenib]: the inhibition at 30 min, 100 µM in data set [3] was 96.7%.
